Structures are written as SMILES. In brackets after ≈: the same amount, converted by molar mass. Like-named read-outs stand apart in the source and are kept apart here. Some results are limits rather than exact numbers.

Here are results for two compounds from EP3452027B1, “USE OF […] TREAT SEA LICE” (priority 2016, dated 2017).

Data set [1] has as its system Lepeophtheirus salmonis sea lice.
Data set [2] relates to Argulus. As to conditions: for Argulus detachment from goldfish and koi carp: after two hours.
Data set [3] has as its system Lepeophtheirus salmonis sea lice. Put plainly: whole plant or invertebrate. The conditions noted are these: 24 h.
The subject of data set [4] is fish embryos. The conditions noted are these: 100µM bergapten; cited from earlier work.

As to `C=C(C)[C@@H]1CCC2=CC(=O)C[C@@H](C)[C@]2(C)C1` [nootkatone], in data set [1] (24 hours post-exposure, microscopic observation), the “concentrations at which no viable sea lice were observed” value is not below 38 mg/L. Also, the “Males EC90” value in data set [1] (adult male L. salmonis, 24 hours post exposure) was 24.27 µg/mL. Besides, the “Females LC50” value in data set [1] (female, Lepeophtheirus salmonis (sea louse), in vivo) is 9.70 µg/mL. In addition, the “Males LC50” value in data set [1] (male, Lepeophtheirus salmonis (sea louse), in vivo) is 16.40 µg/mL. For the same compound, the “Argulus detachment from goldfish and koi carp” value in data set [2] (2ppm nootkatone in tap water) and in data set [2] (6ppm nootkatone in tap water) was “no parasites could be seen” in each case. Moreover, the “mortality of Argulus” value in data set [2] (in vivo) was determined as 100%. Besides, the EC50 in data set [3] (read-out: Females EC50) came to 9.17 µg/mL (≈ 42 µM); in data set [3] (read-out: Males EC50), 11.5 µg/mL (≈ 52.9 µM). Further, the EC90 in data set [3] (read-out: Females EC90, adult female (pre-ovigerous) L. salmonis, 24 hours post exposure) is 13.4 µg/mL (≈ 61.5 µM); in data set [3] (read-out: Males EC90, adult male L. salmonis, 24 hours post exposure) it was 24.3 µg/mL (≈ 111 µM). Also, the LC50 was 9.69 µg/mL (≈ 44.4 µM) in data set [3] (read-out: Females LC50), 13.5 µg/mL (≈ 62 µM) in data set [3] (read-out: LC50 for the total sea lice population (dose that would kill 50% of the total population)) and 16.4 µg/mL (≈ 75.1 µM) in data set [3] (read-out: Males LC50).

On to `COc1c2ccoc2cc2oc(=O)ccc12` [bergapten, 5-methoxypsoralen], for which, in data set [4], the fish embryos killed result is reported as “one third” and the “remaining viable embryos with defects in anterior-posterior patterning” value is listed as “half”.

In general, EC50 refers to the concentration that produces a half-maximal response. Broadly, the EC90 is the concentration at which the effect reaches the 90% level. The LC50 is the concentration that kills 50% of the test population.
